In patent US20020026051A1, “Dithiepino [6,5-b]pyridines, and related compositions and methods” (priority 1999, published 2002) one finds IC50 data, which are given here for 24 compounds.

Broadly, the IC50 is the concentration that inhibits the measured activity by half.

Molecules are shown by their SMILES.

One assay deals with T1, calcium channel (Oryctolagus cuniculus, UniProt P15381).
T1 construct: from tissue; host or cells: rabbit heart membrane preparation
T1 sequence (P15381 whole entry, other chains not shown): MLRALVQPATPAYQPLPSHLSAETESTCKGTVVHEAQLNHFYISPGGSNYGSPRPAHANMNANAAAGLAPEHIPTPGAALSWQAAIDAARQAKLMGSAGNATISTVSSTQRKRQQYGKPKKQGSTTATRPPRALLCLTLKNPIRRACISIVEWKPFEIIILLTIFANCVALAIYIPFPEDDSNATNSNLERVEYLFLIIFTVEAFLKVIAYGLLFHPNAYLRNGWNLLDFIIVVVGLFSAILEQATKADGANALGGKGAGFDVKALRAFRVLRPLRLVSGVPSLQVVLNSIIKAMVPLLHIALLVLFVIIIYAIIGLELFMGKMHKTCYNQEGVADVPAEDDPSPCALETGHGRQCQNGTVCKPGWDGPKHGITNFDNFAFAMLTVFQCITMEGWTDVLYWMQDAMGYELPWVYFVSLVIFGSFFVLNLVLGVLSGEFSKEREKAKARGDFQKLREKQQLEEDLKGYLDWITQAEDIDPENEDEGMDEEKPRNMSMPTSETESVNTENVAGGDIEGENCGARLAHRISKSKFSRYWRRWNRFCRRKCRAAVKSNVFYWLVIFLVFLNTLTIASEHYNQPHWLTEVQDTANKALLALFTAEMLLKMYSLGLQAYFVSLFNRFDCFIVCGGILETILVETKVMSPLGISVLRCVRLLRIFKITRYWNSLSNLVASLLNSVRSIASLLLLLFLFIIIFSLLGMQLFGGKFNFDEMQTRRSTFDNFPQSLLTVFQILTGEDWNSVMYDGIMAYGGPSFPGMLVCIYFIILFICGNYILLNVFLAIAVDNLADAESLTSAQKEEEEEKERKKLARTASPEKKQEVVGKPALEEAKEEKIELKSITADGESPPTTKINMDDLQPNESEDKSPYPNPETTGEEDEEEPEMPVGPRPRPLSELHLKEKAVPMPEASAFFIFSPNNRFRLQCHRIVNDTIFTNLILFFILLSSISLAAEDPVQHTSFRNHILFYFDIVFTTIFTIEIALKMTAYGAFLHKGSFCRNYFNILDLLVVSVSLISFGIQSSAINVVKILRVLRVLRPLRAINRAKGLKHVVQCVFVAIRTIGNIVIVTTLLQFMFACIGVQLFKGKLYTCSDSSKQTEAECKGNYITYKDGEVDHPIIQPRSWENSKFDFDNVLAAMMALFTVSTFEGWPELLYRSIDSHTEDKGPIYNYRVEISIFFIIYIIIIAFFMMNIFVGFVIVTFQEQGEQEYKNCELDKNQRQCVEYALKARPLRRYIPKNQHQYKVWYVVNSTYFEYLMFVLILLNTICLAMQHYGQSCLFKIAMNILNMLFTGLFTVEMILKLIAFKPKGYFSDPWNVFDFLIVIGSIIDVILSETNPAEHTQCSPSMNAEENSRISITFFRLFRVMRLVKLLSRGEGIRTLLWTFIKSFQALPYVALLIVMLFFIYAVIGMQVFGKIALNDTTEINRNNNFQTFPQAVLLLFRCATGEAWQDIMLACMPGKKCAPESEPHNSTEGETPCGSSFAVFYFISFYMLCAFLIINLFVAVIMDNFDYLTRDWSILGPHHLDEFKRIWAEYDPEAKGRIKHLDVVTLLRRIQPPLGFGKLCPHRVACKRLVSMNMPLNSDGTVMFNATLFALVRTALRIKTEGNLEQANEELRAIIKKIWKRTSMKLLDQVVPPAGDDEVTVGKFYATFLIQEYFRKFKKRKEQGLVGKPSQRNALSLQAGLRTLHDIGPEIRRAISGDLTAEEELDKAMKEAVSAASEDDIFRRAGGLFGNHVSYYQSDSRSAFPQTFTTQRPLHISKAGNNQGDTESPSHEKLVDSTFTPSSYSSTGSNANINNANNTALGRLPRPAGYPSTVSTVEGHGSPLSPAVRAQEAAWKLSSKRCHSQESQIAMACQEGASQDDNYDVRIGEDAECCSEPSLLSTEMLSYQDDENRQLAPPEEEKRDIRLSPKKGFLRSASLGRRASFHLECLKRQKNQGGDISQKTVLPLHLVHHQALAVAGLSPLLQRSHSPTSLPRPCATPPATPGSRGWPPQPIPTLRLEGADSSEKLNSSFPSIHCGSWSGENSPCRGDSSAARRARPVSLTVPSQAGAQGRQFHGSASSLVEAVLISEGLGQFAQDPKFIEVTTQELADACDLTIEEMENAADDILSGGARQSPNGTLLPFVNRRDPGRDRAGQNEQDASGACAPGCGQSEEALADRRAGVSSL
T1 sequence (P13806 27-960 partner limits assumed, other chains not shown): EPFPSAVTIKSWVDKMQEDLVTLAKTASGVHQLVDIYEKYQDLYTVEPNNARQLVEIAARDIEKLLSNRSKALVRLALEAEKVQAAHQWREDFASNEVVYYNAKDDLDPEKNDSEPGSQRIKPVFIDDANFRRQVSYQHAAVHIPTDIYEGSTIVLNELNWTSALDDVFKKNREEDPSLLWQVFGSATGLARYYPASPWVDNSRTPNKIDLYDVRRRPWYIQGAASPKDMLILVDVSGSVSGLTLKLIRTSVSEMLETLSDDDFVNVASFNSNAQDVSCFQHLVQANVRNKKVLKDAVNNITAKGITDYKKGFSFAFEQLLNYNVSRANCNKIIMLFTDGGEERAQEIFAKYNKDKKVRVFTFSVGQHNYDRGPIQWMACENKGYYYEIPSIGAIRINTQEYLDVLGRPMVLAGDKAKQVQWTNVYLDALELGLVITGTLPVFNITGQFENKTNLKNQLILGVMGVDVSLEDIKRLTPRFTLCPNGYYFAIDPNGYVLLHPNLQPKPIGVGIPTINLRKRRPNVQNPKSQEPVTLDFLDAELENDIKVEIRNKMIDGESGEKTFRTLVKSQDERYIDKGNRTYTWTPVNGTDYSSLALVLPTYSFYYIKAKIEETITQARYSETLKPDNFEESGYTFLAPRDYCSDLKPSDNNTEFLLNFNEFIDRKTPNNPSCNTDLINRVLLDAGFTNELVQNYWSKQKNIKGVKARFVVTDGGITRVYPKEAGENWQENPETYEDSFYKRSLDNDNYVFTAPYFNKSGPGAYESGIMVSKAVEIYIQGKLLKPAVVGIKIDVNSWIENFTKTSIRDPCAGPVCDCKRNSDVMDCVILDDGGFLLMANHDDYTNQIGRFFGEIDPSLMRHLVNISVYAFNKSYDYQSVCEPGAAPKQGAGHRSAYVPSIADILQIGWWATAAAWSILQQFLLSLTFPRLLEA
T1 sequence (P13806 961-1106 partner limits assumed, other chains not shown): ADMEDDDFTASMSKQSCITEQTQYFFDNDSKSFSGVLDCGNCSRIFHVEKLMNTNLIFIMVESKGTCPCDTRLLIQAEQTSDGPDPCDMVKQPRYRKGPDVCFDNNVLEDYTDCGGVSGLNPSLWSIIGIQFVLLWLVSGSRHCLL
The assay can be described thus: Assay for Inhibition of Nitrendipine Binding (3H-nitrendipine, heart membranes). The conditions noted are these: 3H-nitrendipine displacement, rabbit heart membranes; Tables 1-5. The method, then: Female, New Zealand white rabbits (1-2 kg) are sacrificed by cervical dislocation, and the heart is immediately removed, cleaned and chopped into small pieces. The tissue is homogenized in 5× times volume of 0.05M Hepes buffer, pH 7.4. The homogenate is centrifuged at 4000 g for 10 minutes, and the supernatant is re-centrifuged at 42,000×g for 90 minutes. The resulting membrane pellet is resuspended (0.7 ml/g weight) in 0.05M Hepes, pH 7.4 and stored at […] until used. Each tube of the binding assay contains ^3H-nitrendipine (0.05-0.50 nM), buffer, membranes (0.10 ml), and test compound in a total volume of 1.0 ml. After 90 minutes at 4° C., the bound nitrendipine is separated from the unbound by filtration on Whatman GF/C filters. After rinsing, the filters are dried and counted in a liquid scintillation counter.
Non-specific binding of ^3H-nitrendipine (that amount bound in the presence of excess unlabelled nitrendipine) is subtracted from the total bound to obtain specifically bound radiolabeled nitrendipine. The amount of specifically bound nitrendipine in the presence of a test compound is compared to that amount bound in the absence of a compound. A percent displacement (or inhibition) can then be calculated.
On to `CC1=C(C(=O)OCCN(C)Cc2ccccc2)C(c2cc(F)c(F)c(F)c2)C2=C(CS(=O)(=O)CCS2(=O)=O)N1` (stereo not drawn) [Compound 9, 5H-1,4-Dithiepino[6,5-b]pyridine-8-carboxylic acid, 2,3,6,9-tetrahydro-7-methyl-9-(3,4,5-trifluorophenyl)-2-[methyl(phenylmethyl)amino]ethyl ester 1,1,4,4-tetraoxide], for which the IC50 worked out at 13 nM.
Same read-out and setting: next, `CC1=C(C(=O)OCCN(C)Cc2ccccc2)C(c2c(F)cccc2C(F)(F)F)C2=C(CS(=O)(=O)CCS2(=O)=O)N1` (stereo not drawn) [Compound 5, 5H-1,4-Dithiepino[6,5-b]pyridine-8-carboxylic acid, 9-[2-fluoro-6-(trifluoromethyl)phenyl]-2,3,6,9-tetrahydro-7-methyl-2-[methyl(phenylmethyl)amino]ethyl ester 1,1,4,4-tetraoxide]: 12 nM; `COC(=O)C1=C(C)NC2=C(C1c1c(F)cccc1F)S(=O)(=O)CCS(=O)(=O)C2` (stereo not drawn) [Compound 14, 5H-1,4-Dithiepino[6,5-b]pyridine-8-carboxylic acid, 9-(2,6-difluorophenyl)-2,3,6,9-tetrahydro-7-methyl-methyl ester 1,1,4,4-tetraoxide]: 259 nM.
On the same count and under the same terms, the same measure for `COC(=O)C1=C(C)NC2=C(C1c1c(F)cccc1Cl)S(=O)(=O)CCS(=O)(=O)C2` (stereo not drawn) [Compound 11, 5H-1,4-Dithiepino[6,5-b]pyridine-8-carboxylic acid, 9-(2-chloro-6-fluorophenyl)-2,3,6,9-tetrahydro-7-methyl-methyl ester 1,1,4,4-tetraoxide]: 91 nM.
Still for that read-out and setting: the same measure for `CC1=C(C(=O)OCCN(C)Cc2ccccc2)C(c2ccccc2Cl)C2=C(CS(=O)(=O)CCCS2(=O)=O)N1` (stereo not drawn) [Compound 29, 2H,6H-1,5-Dithiocino[3,2-b]pyridine-9-carboxylic acid, 10-(2-chlorophenyl)-3,4,7,10-tetrahydro-8-methyl-2-[methyl(phenylmethyl)amino]ethyl ester 1,1,5,5-tetraoxide]: 57 nM.
With `CC1=C(C(=O)OCCN(C)Cc2ccccc2)C(c2cccc([N+](=O)[O-])c2)C2=C(CS(=O)(=O)CCS2(=O)=O)N1` (stereo not drawn) [Compound 8, 5H-1,4-Dithiepino[6,5-b]pyridine-8-carboxylic acid, 2,3,6,9-tetrahydro-7-methyl-9-(3-nitrophenyl)-2-[methyl(phenylmethyl)amino]ethyl ester 1,1,4,4-tetraoxide], the IC50 is 43 nM.
For `CC1=C(C(=O)OCCN(C)Cc2ccccc2)C(c2cccc(C(F)(F)F)c2F)C2=C(CS(=O)(=O)C(CO)CS2(=O)=O)N1` (stereo not drawn) [Compound 23, 5H-1,4-Dithiepino[6,5-b]pyridine-8-carboxylic acid, 9-[2-fluoro-3-(trifluoromethyl)phenyl]-2,3,6,9-tetrahydro-3-(hydroxymethyl)-7-methyl-2-[methyl(phenylmethyl)amino]ethyl ester 1,1,4,4-tetraoxide], the IC50 came out at 215 nM.
Still for that read-out and setting: next, `CC1=C(C(=O)OCCN(C)Cc2ccccc2)C(c2cccc([N+](=O)[O-])c2)C2=C(CS(=O)(=O)C(CO)CS2(=O)=O)N1` (stereo not drawn) [Compound 24, 5H-1,4-Dithiepino[6,5-b]pyridine-8-carboxylic acid, 2,3,6,9-tetrahydro-3-(hydroxymethyl)-7-methyl-9-(3-nitrophenyl)-2-[methyl(phenylmethyl)amino]ethyl ester 1,1,4,4-tetraoxide]: 337 nM.
Same read-out and setting: next, `COC(=O)C1=C(C)NC2=C(C1c1ccccc1Cl)S(=O)(=O)CCS(=O)(=O)C2` (stereo not drawn) [Compound 15, 5H-1,4-Dithiepino[6,5-b]pyridine-8-carboxylic acid, 9-(2-chlorophenyl)-2,3,6,9-tetrahydro-7-methyl-methyl ester 1,1,4,4-tetraoxide]: 61 nM; `CC1=C(C(=O)OCCN(C)Cc2ccccc2)C(c2c(F)cccc2C(F)(F)F)C2=C(CS(=O)(=O)CCCS2(=O)=O)N1` (stereo not drawn) [Compound 26, 2H,6H-1,5-Dithiocino[3,2-b]pyridine-9-carboxylic acid, 10-[2-fluoro-6-(trifluoromethyl)phenyl]-3,4,7,10-tetrahydro-8-methyl-2-[methyl(phenylmethyl)amino]ethyl ester 1,1,5,5-tetraoxide]: 28 nM.
Same read-out and setting: next, `CC1=C(C(=O)OCCN(C)Cc2ccccc2)C(c2ccccc2Cl)C2=C(CS(=O)(=O)CS2(=O)=O)N1` (stereo not drawn) [Compound 32, 4H-1,3-Dithiino[5,4-b]pyridine-7-carboxylic acid, 8-(2-chlorophenyl)-5,8-dihydro-6-methyl-2-[methyl(phenylmethyl)amino]ethyl ester 1,1,3,3-tetraoxide]: 39 nM.

Still in this assay, the particulars now being: 3H-nitrendipine displacement, rabbit heart membranes; Tables 6-7.
As for `CC1=C(C(=O)OCCOC(=O)C(C)(C)C)C(c2c(F)cccc2Cl)C2=C(CS(=O)(=O)CCS2(=O)=O)N1` (stereo not drawn) [Compound 89], the IC50 came out at 3700 nM.
Same read-out and setting: the same measure for `CC1=C(C(=O)OCCNC(=O)c2ccccc2)C(c2c(F)cccc2Cl)C2=C(CS(=O)(=O)CCS2(=O)=O)N1` (stereo not drawn) [Compound 87]: 2260 nM; for `CC1=C(C(=O)OCCOC(=O)CNC(=O)OC(C)(C)C)C(c2c(F)cccc2Cl)C2=C(CS(=O)(=O)CCS2(=O)=O)N1` (stereo not drawn) [Compound 81]: 946 nM; for `CC(=O)OCCCOC(=O)C1=C(C)NC2=C(C1c1c(F)cccc1Cl)S(=O)(=O)CCS(=O)(=O)C2` (stereo not drawn) [Compound 86]: 2120 nM.
The same measure, in the same setting: the same measure for `CC1=C(C(=O)OCCOC(=O)C(C)C)C(c2cccc(Cl)c2Cl)C2=C(CS(=O)(=O)CCS2(=O)=O)N1` (stereo not drawn) [Compound 34, 5H-[1,4]dithiepino[6,5-b]pyridine-8-carboxylic acid, 9-(2,3-dichlorophenyl)-2,3,6,9-tetrahydro-7-methyl-, 2-(2-methyl-1-oxopropoxy)ethyl ester, 1,1,4,4-tetraoxide]: 15 nM; for `CC1=C(C(=O)OCCNC(=O)OC(C)(C)C)C(c2c(F)cccc2Cl)C2=C(CS(=O)(=O)CCS2(=O)=O)N1` (stereo not drawn) [Compound 79, 5H-[1,4]dithiepino[6,5-b]pyridine-8-carboxylic acid, 9-(2-chloro-6-fluorophenyl)-2,3,6,9-tetrahydro-7-methyl-, 2-[[(1,1-dimethylethoxy)carbonyl]amino]ethyl ester, 1,1,4,4-tetraoxide]: 768 nM; for `CC1=C(C(=O)OCCCOC(=O)C(C)C)C(c2c(F)cccc2Cl)C2=C(CS(=O)(=O)CCS2(=O)=O)N1` (stereo not drawn) [Compound 62]: 176 nM.
On the same count and under the same terms, the same measure for `CC1=C(C(=O)OCCOC(=O)C(C)Cc2ccccc2)C(c2c(F)cccc2Cl)C2=C(CS(=O)(=O)CCS2(=O)=O)N1` (stereo not drawn) [Compound 37]: 33 nM; for `CC1=C(C(=O)OCCOC(=O)c2ccc(C#N)cc2)C(c2c(F)cccc2Cl)C2=C(CS(=O)(=O)CCS2(=O)=O)N1` (stereo not drawn) [Compound 48]: 55 nM; for `CC1=C(C(=O)OCCCO)C(c2c(F)cccc2Cl)C2=C(CS(=O)(=O)CCS2(=O)=O)N1` (stereo not drawn) [Compound 83]: 1210 nM.
In the case of `CC1=C(C(=O)OCCO)C(c2c(F)cccc2Cl)C2=C(CS(=O)(=O)CCS2(=O)=O)N1` (stereo not drawn) [Compound 82], the half-maximal inhibitory concentration (IC50) was found to be 1000 nM.
On the same count and under the same terms, the same measure for `CC1=C(C(=O)OCCOC(=O)CCC(C)C)C(c2c(F)cccc2Cl)C2=C(CS(=O)(=O)CCS2(=O)=O)N1` (stereo not drawn) [Compound 36]: 20 nM.
Still for that read-out and setting: next, `CC1=C(C(=O)OCC(=O)O)C(c2c(F)cccc2Cl)C2=C(CS(=O)(=O)CCS2(=O)=O)N1` (stereo not drawn) [Compound 98, 7-methyl-9-[2-fluoro-6-chlorophenyl]-2,3,6,9-tetrahydro-1,1,4,4-tetraoxide 5H-1,4-Dithiepino[6,5-b]pyridine-8-carboxylic acid carboxymethyl ester]: 316000 nM.
